{
  "source": "patent US11684676B2",
  "about": "“Site-specific antibody-drug conjugates by ADP-ribosyl cyclases” (University of Southern California, priority 2020, dated 2023)",
  "system": "CD38 C-fusion IgG",
  "experiment": "Inactivation of CD38 C-fusion IgG by 2′-Cl-araNAD+-N3",
  "format": "biochemical, human",
  "details": "CD38 C-fusion IgG 2 nM, NGD+ 100 μM",
  "source_text": "The formation of cyclic GDP-ribose was monitored by a Synergy H1 plate reader (Biotek, VT) under the kinetic mode with excitation wavelength set at 300 nm and emission wavelength at 410 nm.",
  "data": [
    {"smiles": "[N-]=[N+]=NCCCNc1ncnc2c1ncn2[C@@H]1O[C@H](COP(=O)(O)OP(=O)([O-])OC[C@H]2O[C@@H]([n+]3cccc(C(N)=O)c3)[C@@H](Cl)[C@@H]2O)[C@@H](O)[C@H]1O", "note": "[2′-Cl-araNAD^+-N3, 1-((2R,3S,4R,5R)-5-((((((((2R,3S,4R,5R)-5-(6-((3-azidopropyl)amino)-9H-purin-9-yl)-3,4-dihydroxytetrahydrofuran-2-yl)methoxy)(hydroxy)phosphoryl)oxy)oxidophosphoryl)oxy)methyl)-3-chloro-4-hydroxytetrahydrofuran-2-yl)-3-carbamoylpyridin-1-ium]", "values": [
      {"measurement": "kinact", "value": "0.0039 ± 0.0007", "unit": "s⁻¹"}
    ]}
  ]
}
